The results in this text go back to article PMC9115719, “Spatial Expression Analysis of Odorant Binding Proteins in Both Sexes of the Aphid Parasitoid Aphidius gifuensis and Their Ligand Binding Properties” (Frontiers in Physiology, 2022).

Where “and” joins values, the source holds several entries; their conditions need not be identical. Identical values can stand only once. Like-named read-outs stand apart in the source and are kept apart here. Where only a bound is given, the exact number is not on record here.

Assay [1] has as its target T1, AgifOBP7 (Aphidius gifuensis, UniProt A0A3S9LWE5). Nature of the assay: Fluorescence competitive binding assay (1-NPN displacement) with recombinant AgifOBP7. The conditions noted are these: for binding to AgifOBP7 in words: fluorescence competitive binding assay. Here is the method:
(§1) Fluorescence intensity was recorded in a right angle configuration on a Lengguang 970CRT spectrofluorimeter (Shanghai Jingmi, China) at room temperature using a 1 cm light path fluorimeter quartz cuvette. A slit width of 10 nm was selected for both excitation and emission. The measured fluorescence intensities were corrected for both blank signals due to protein emission and scattered excitation light. The spectral data were processed using the software 970CRT 2.0l. Fluorescence binding experiments were conducted in […] Tris-HCl buffer, pH 7.4, at room temperature. The binding affinity for N-phenyl-1-naphthylamine (1-NPN) was determined by adding aliquots of a 1 mM stock solution of 1-NPN dissolved in spectrophotometric grade methanol into a 2 μM protein sample. The fluorescence of 1-NPN was excited at 337 nm, and emission was recorded between 350 and 500 nm. Spectra were recorded with a high-speed scan. All ligands used in competitive experiments were dissolved in spectrophotometric grade methanol. In competition assays, aliquots of the competing ligands were added into a 2 μM protein solution in the presence of a given concentration of 1-NPN. To estimate the binding affinities of each AgifOBP for a variety of different ligands, we monitored the decrease in 1-NPN fluorescence due to the ability of different odorants to displace 1-NPN and determined the Ki value for each compound. To determine the dissociation constants, the intensity values corresponding to the maximum fluorescence emissions were plotted against the cumulative 1-NPN concentration. The amount of bound ligand was calculated from the fluorescence intensity values by assuming that the protein was 100% active, with a stoichiometry of 1:1 protein: ligand at saturation. The curves were linearized using Scatchard plots. The value of K1-NPN was estimated on a direct plot by nonlinear regression with an equation corresponding to a single binding site using Prism 7 (GraphPad Software, Inc., United States), and the IC50 was defined as the concentration of a competitor that caused a 50% reduction in fluorescence intensity. The dissociation constants of the inhibitors (Ki) were calculated according to the formula Ki = [IC50]/(1+[1-NPN]/K1-NPN), in which [1-NPN] represents the free 1-NPN concentration and K1-NPN represents the dissociation constant for AgifOBPs/1-NPN ([Ban et al., 2003]; [Zhong et al., 2012]; [Sun et al., 2016]; [Fan et al., 2017]; [Qin et al., 2020]; [Wang et al., 2021b]). All fluorescence competitive binding assays were performed in three independent replicates, and Ki dates are present as means ± SD.
(§2) FIGURE 5 Expression and binding properties of AgifOBP7 and AgifOBP9 with candidate ligands. (A) Expression and purification of AgifOBP7, (B) Expression and purification of AgifOBP9. Line M: molecular weight PR 1910 (11–180 KDa) Marker, 11, 17, 25, 35, 48, 63, 75, 100, 135, 180 KDa; IN: Induced pET-28a (+)/AgifOBP7/9; Super: pET-28a (+)/AgifOBP7/9 Supernatant; IB: pET-28a (+)/AgifOBP7/9 Inclusion body; Pur: Purified pET-28a (+)/AgifOBP7/9 without His-tag. (C,D) Binding curves of AgifOBP7 and AgifOBP9 with N-phenyl-1-naphthylamine (1-NPN) in 50 mM Tris-HCl buffer (pH 7.4). (E,F) Competitive binding curves of AgifOBP7 and AgifOBP9 to components of aphid alarm pheromones ((E)-beta-farnesene, (-)-α-pinene, (-)-β-pinene, (+)-limonene, (E)-beta-farnesene derivative (CAU-II-11); aphid sexual pheromone (4aSR 7SR 7aRS)-nepetalactone, the volatiles of wheat green leaf (cis-3-hexen-1-ol) and aphid induced plant main volatiles (methyl salicylate, 6-methyl-5-hepten-2-one). A mixture of the recombinant protein and N-phenyl-1-naphthylamine (1-NPN) in 50 mM Tris-HCl buffer (pH 7.4) at the concentration of 2 μM was titrated with 1 mM solutions of each competing ligand to a final concentration range of 2–16 μM. Fluorescence values are presented as percent of the values in the absence of competitor. Date are the means ± SD of three independent experiments.

Assay [2] has as its target T2, AgifOBP9 (Aphidius gifuensis, UniProt A0A3Q9EL79, L121S). Put plainly: Fluorescence competitive binding assay (1-NPN displacement) with recombinant AgifOBP9. As to conditions: for Ki: Tris-HCl pH 7.4, Ki = [IC50]/(1+[1-NPN]/K1-NPN), means ± SD, three replicates. As to the method:
as §1, §2

Assay [3] has as its target T1, AgifOBP7. Put plainly: Binding of fluorescent probe 1-NPN to AgifOBP7. The conditions noted are these: 2 μM protein, 50 mM Tris-HCl pH 7.4; read-out: dissociation constant of AgifOBP7/1-NPN complex. As to the method:
(§3) Fluorescence intensity was recorded in a right angle configuration on a Lengguang 970CRT spectrofluorimeter (Shanghai Jingmi, China) at room temperature using a 1 cm light path fluorimeter quartz cuvette. A slit width of 10 nm was selected for both excitation and emission. The measured fluorescence intensities were corrected for both blank signals due to protein emission and scattered excitation light. The spectral data were processed using the software 970CRT 2.0l. Fluorescence binding experiments were conducted in […] Tris-HCl buffer, pH 7.4, at room temperature. […] The fluorescence of 1-NPN was excited at 337 nm, and emission was recorded between 350 and 500 nm. Spectra were recorded with a high-speed scan. […] To estimate the binding affinities of each AgifOBP for a variety of different ligands, we monitored the decrease in 1-NPN fluorescence due to the ability of different odorants to displace 1-NPN and determined the Ki value for each compound. To determine the dissociation constants, the intensity values corresponding to the maximum fluorescence emissions were plotted against the cumulative 1-NPN concentration. The amount of bound ligand was calculated from the fluorescence intensity values by assuming that the protein was 100% active, with a stoichiometry of 1:1 protein: ligand at saturation. […]

For assay [4], the target named is T2, AgifOBP9. Nature of the assay: Binding of fluorescent probe 1-NPN to AgifOBP9. The conditions noted are these: 2 μM protein, 50 mM Tris-HCl pH 7.4; read-out: dissociation constant of AgifOBP9/1-NPN complex. Here is the method:
as §3

Where [5] appears, read: OBP9 Ki, displacement of 1-NPN, 2 μM protein.
Where [6] appears, read: displacement of 1-NPN, 2 μM protein, Tris-HCl pH 7.4, room temperature, read-out: OBP7 IC50.
[7] abbreviates: displacement of 1-NPN, 2 μM protein, Tris-HCl pH 7.4, Ki = [IC50]/(1+[1-NPN]/K1-NPN), means ± SD, three replicates, read-out: OBP7 Ki.
Where [8] appears, read: displacement of 1-NPN, 2 μM protein, Tris-HCl pH 7.4, room temperature, read-out: OBP9 IC50.
[9] abbreviates: displacement of 1-NPN, 2 μM protein, read-out: OBP9 Ki.

T1 sequence (A0A3S9LWE5 entry or part of it): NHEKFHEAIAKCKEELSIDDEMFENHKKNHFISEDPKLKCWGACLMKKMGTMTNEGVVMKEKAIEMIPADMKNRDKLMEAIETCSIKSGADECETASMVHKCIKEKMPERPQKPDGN
T2 sequence (A0A3Q9EL79 entry or part of it L121S): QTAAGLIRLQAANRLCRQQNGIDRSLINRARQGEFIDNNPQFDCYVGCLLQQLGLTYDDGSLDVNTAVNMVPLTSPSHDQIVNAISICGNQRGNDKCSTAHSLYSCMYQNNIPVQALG

On to `CC(=O)CCC=C(C)C` [6-Methyl-5-hepten-2-one], for which the IC50 (in general, the concentration that gives 50% inhibition) is more than 30 µM on AgifOBP7 [1] and 22.3 ± 3.38 µM on AgifOBP9 [2]. Moreover, the Ki (usually the dissociation constant of the complex between target and ligand, obtained from inhibition or displacement) on AgifOBP7 [1] is more than 30 µM; at AgifOBP9 [2] (setting [5]), < 10 µM and 5.76 µM. Besides, the “binding to AgifOBP7 in words” value on AgifOBP7 [1] is given as “not much”.

For the compound `CC/C=C\CCO` [cis-3-Hexenol], the IC50 at AgifOBP7 [1] is more than 30 µM; on AgifOBP9 [2] it was 17 ± 0.33 µM. Further, the Ki on AgifOBP7 [1] was more than 30 µM; on AgifOBP9 [2] (setting [5]), < 10 µM and 4.39 µM. At AgifOBP7 [1], the “binding to AgifOBP7 in words” value was “not much”.

Regarding `COC(=O)c1ccccc1O` [Methyl salicylate], at AgifOBP7 [1], the IC50 is more than 30 µM, the Ki was more than 30 µM and the “binding to AgifOBP7 in words” value is “not much”. In addition, the half-inhibitory concentration (IC50) at AgifOBP9 [2] stood at 13.3 ± 2.99 µM. Besides, the Ki on AgifOBP9 [2] (setting [5]) is < 10 µM and 3.43 µM.

For `c1ccc(Nc2cccc3ccccc23)cc1` [1-NPN, N-phenyl-1-naphthylamine], the values for the Kd at AgifOBP7 [3] and on AgifOBP9 [4] were 1.69 ± 0.27 µM and 0.69 ± 0.24 µM, respectively.

As for `C=C(C)C1CC=C(C)CC1` (single isomer, unassigned; (+)) [(+)-Limonene], the 50% inhibitory concentration (IC50) is more than 30 µM on AgifOBP7 [1] (setting [6]) and 12.8 ± 0.25 µM on AgifOBP9 [2] (setting [8]). For the same compound, the inhibition constant (Ki) on AgifOBP7 [1] (setting [7]) is more than 30 µM; at AgifOBP9 [2] (displacement of 1-NPN, 2 μM protein, listed as (+)-limonene, read-out: OBP9 Ki) it was less than 10 µM; at AgifOBP9 [2] (setting [9]) it was 3.32 ± 0.06 µM. The “binding to AgifOBP7 in words” value at AgifOBP7 [1] is listed as “not much”.

As to `C=C1CCC2CC1C2(C)C` (stereo not drawn) [(-)-β-Pinene], the values for the IC50 at AgifOBP7 [1] (setting [6]) and at AgifOBP9 [2] (setting [8]) were more than 30 µM and 11.9 ± 1.27 µM, respectively. For the same compound, the inhibition constant (Ki) at AgifOBP7 [1] (setting [7]) is more than 30 µM; on AgifOBP9 [2] (displacement of 1-NPN, 2 μM protein, listed as (-)-β-pinene, read-out: OBP9 Ki) it was less than 10 µM; on AgifOBP9 [2] (setting [9]), 3.06 ± 0.33 µM. The “binding to AgifOBP7 in words” value at AgifOBP7 [1] was “not much”.

For `CC1=COC(=O)[C@H]2[C@@H]1CC[C@@H]2C` [(4aSR 7SR 7aRS)-Nepetalactone], the IC50 is more than 30 µM on AgifOBP7 [1] (setting [6]) and 9.03 ± 0.31 µM on AgifOBP9 [2] (setting [8]). For the same compound, the Ki on AgifOBP7 [1] (setting [7]) was 16.1 ± 3.49 µM; on AgifOBP9 [2] (displacement of 1-NPN, 2 μM protein, listed as (4aSR 7SR 7aRS)-nepetalactone, read-out: OBP9 Ki) it was less than 10 µM; on AgifOBP9 [2] (setting [9]), 2.33 ± 0.08 µM.

In the case of `C=CC(=C)CC/C=C(\C)CCC=C(C)C` [(E)-β-Farnesene], the IC50 at AgifOBP7 [1] (setting [6]) is more than 30 µM; on AgifOBP9 [2] (setting [8]), 17.8 ± 1.69 µM. For the same compound, the Ki is 20.3 ± 1.99 µM on AgifOBP7 [1] (setting [7]); less than 10 µM at AgifOBP9 [2] (displacement of 1-NPN, 2 μM protein, listed as EBF, read-out: OBP9 Ki); 4.6 ± 0.43 µM on AgifOBP9 [2] (setting [9]).

For the compound `CC1=CCC2CC1C2(C)C` (stereo not drawn) [(-)-α-Pinene], the IC50 on AgifOBP7 [1] (setting [6]) was more than 30 µM; on AgifOBP9 [2] (setting [8]), 24.1 ± 3.42 µM. Besides, the Ki is more than 30 µM on AgifOBP7 [1] (setting [7]); less than 10 µM on AgifOBP9 [2] (displacement of 1-NPN, 2 μM protein, listed as (-)-α-pinene, read-out: OBP9 Ki); 6.22 ± 0.88 µM at AgifOBP9 [2] (setting [9]). Besides, the “binding to AgifOBP7 in words” value on AgifOBP7 [1] is “not much”.

Take `COc1cccc(C(=O)OC/C=C(\C)CCC=C(C)C)c1O` [CAU-II-11, (E)-3,7-dimethylocta-2,6-dien-1-yl-2-hydroxy-3-methoxybenzoate]: the IC50 at AgifOBP7 [1] was found to be 18.6 ± 1.73 µM; at AgifOBP9 [2], 4.15 ± 0.33 µM. Besides, the Ki stood at 8.5 ± 0.73 µM at AgifOBP7 [1] and 1.07 ± 0.08 µM on AgifOBP9 [2] (setting [5]).
